Like-named read-outs stand apart in the source and are kept apart here. Where no end group is shown, it is not given here.
Tests used:
[1] = target: T1, 20S immuno-proteasomes from mouse B-cell line (RMA) (Mus musculus, UniProt O35955+P28063+P28076); assay: In vitro proteasome mediated digestion of 30-mers, mass spectrometry, immunoproteasome RMA; assay type: biochemical; settings: 30 residue long precursor peptides
T1 construct: 20S immuno-proteasomes were purified from a mouse B-cell line (RMA); endogenous in cells; host or cells: RMA cells; 20S proteasome purified from them
Protocol: (§1) In the context of the invention, “being inefficiently processed by a proteasome” preferably means that within the first hour of digestion by a proteasome less than 1% of total digested peptide is found. The processing by a proteasome is preferably assessed by incubating a purified proteasome, more preferably a human proteasome with a peptide comprising the potential CTL epitope (30 amino acid length approximately) in a proteasome digestion buffer during at least one hour at 37° C. The reaction is subsequently stopped by adding trifluoroacetic acid. Analysis of the digested peptides is performed with electrospray ionization mass spectrometry (see example 1). Even more preferably, the human proteasome is an immunoproteasome from B-LCL JY cells (Kessler J H et al. 2001).
(§2) 20S immuno-proteasomes were purified from a mouse B-cell line (RMA) and a human B-LCL cell line (JY) and 20S household proteasomes were purified from human tumor cell line (HeLa) as described (Kessler J H et al 2001). To assess kinetics, digestions were performed with different incubation periods as indicated. Briefly, peptides containing the (potential) CTL epitopes (30 mers, 20 μg) were incubated with 1 μg of purified proteasome at 37° C. for 1 h, 4 h and 24 h in 300 μl proteasome digestion buffer, trifluoroacetic acid (30 μl) was added to stop the digestion and samples were stored at −20° C. before mass spectrometric analysis. Electrospray ionization mass spectrometry was performed on a hybrid quadrupole time-of-flight mass spectromter, a Q-TOF (Micromass), equipped with an on-line nanoelectrospray interface with an approximate flow rate of […] as described (Kessler J H et al 2001). The peaks in the mass spectrum were searched in the digested precursor peptide using the Biolynx/proteins software (Micromass) supplied with the mass spectrometer. The intensity of the peaks in the mass spectra was used to establish the relative amounts of peptides generated after proteasome digestion. The relative amounts of the peptides are given as a percentage of the total amount of peptide digested by the proteasome at the indicated incubation time. Major cleavage sites are defined as more than >1% of total digested peptide within the first hour.

HLA-A*0301 [2] = target: T2, HLA-A*0301 (Homo sapiens, UniProt P04439); assay: Stability of peptide-HLA complex, binding at 4° C. and 20° C., HLA-A*0301; settings: for HLA binding Stability (Table 5): HLA type A3; for Peptide Binding Stability: HLA-A*0301, IC50 at 20° C. vs 4° C.
T2 construct: B-cell lines used are: CAA (A*0101), EKR (A*0301), BVR (A*1101), VIJF (A*2401); endogenous in cells; host or cells: B-cell line EKR
Protocol: (§3) Stability of other peptide-HLA complexes was preferably determined as follows. […] Peptides of >50% of the initial complexes was lost within 2 hours were considered unstable. […] The rest was designated as unstable peptide binding.
(§4) Peptides 8-11 residues in length were selected based on typical anchor residues for HLA-A*0101, A*0301, A*1101 and HLA-A*2401 (Rammensee H G et al). The capacity of peptides to bind was tested in a competition based cellular binding assay as previously described (van der Burg S H et al 1995). FL-labeled reference peptides were synthesized as Cys-derivative (van der Burg S H et al 1995). Fluorescence labeled reference peptides used were: YLEPAC(FL)AK (SEQ ID NO: 87) (HLA-A*0101) and KVFPC(FL)ALINK (SEQ ID NO: 88) (HLA-A*1101) (Sette A et al), KVFPC(FL)ALINK (SEQ ID NO: 89) (HLAA*0301) (van der Burg S H et al 1995) and RYLKC(FL)QQLL (SEQ ID NO: 90) (A*2401) (Dai L C et al). B-cell lines used are: CAA (A*0101), EKR (A*0301), BVR (A*1101), VIJF (A*2401). The relative binding capacity of the peptides is expressed as the peptide concentration to inhibit 50% (1050) of the binding of the reference peptide. […] Peptide stabilization for HLA-A*0201 was performed as previously described (van der Burg S H et al, 1996). Peptides of >50% of the initial complexes was lost within 2 hours were considered unstable. Stability of other peptide-HLA complexes was determined as follows. Peptide binding was performed at 4° C. and 20° C. and 1050 were determined. […] The rest was designated as unstable peptide binding.

[3] = target: T3, 20S immuno-proteasomes from human B-LCL cell line (JY) (Homo sapiens, UniProt P28062+P28065+P40306); assay: In vitro proteasome mediated digestion of 30-mers, mass spectrometry, immunoproteasome JY; assay type: biochemical; settings: 30 residue long precursor peptides
T3 construct: purified from a mouse B-cell line (RMA) and a human B-LCL cell line (JY); endogenous in cells; host or cells: B-LCL JY cells; 20S proteasome purified from them
Protocol: as §1, §2

HLA-A*0301 [4] = target: T2, HLA-A*0301; assay: Competition based cellular binding assay, HLA-A*0301 (B-cell line EKR); settings: for HLA binding Affinity (Table 5): HLA type A3
HLA-A*1101 [5] = target: T4, HLA-A*1101 (Homo sapiens, UniProt P04439, A114D/D185E/E176A/F33Y/L180Q/S129P/T187R); assay: Competition based cellular binding assay, HLA-A*1101 (B-cell line BVR); settings: for HLA binding Affinity (Table 5): HLA type A11
T4 construct: B-cell lines used are: CAA (A*0101), EKR (A*0301), BVR (A*1101), VIJF (A*2401); endogenous in cells; host or cells: B-cell line BVR

HLA-A*1101 [6] = target: T4, HLA-A*1101; assay: Stability of peptide-HLA complex, binding at 4° C. and 20° C., HLA-A*1101; settings: for Peptide Binding Stability: HLA-A*1101, IC50 at 20° C. vs 4° C.; for HLA binding Stability (Table 5): HLA type A11
Protocol: as §3, §4

[7] = HLA-A*1101, IC50 category, read-out: Peptide Binding Affinity

Compound	HLA binding Affinity (Table 5) (HLA-A*0301 [4])	IC50 (HLA-A*0301 [4]; HLA-A*0301, IC50 category, read-out: Peptide Binding Affinity) [µM]	Peptide Binding Affinity (HLA-A*1101 [5]; HLA-A*1101, IC50 category)	Peptide Binding Affinity (HLA-A*0301 [4]; HLA-A*0301, IC50 category)	HLA binding Affinity (Table 5) (HLA-A*1101 [5])	IC50 (HLA-A*1101 [5]; [7]) [µM]	Proteasomal Cleavage of C-terminus, IP (RMA) [1]	HLA binding Stability (Table 5) (HLA-A*0301 [2])	Peptide Binding Stability (HLA-A*0301 [2])	Proteasomal Cleavage of C-terminus, IP (JY) [3]	Peptide Binding Stability (HLA-A*1101 [6])	HLA binding Stability (Table 5) (HLA-A*1101 [6])	IC50 (HLA-A*1101 [5]) [µM]
CC(C)C[C@H](NC(=O)[C@@H](N)Cc1ccccc1)C(=O)N[C@@H](Cc1c[nH]cn1)C(=O)N[C@@H](CO)C(=O)NCC(=O)N[C@H](C(=O)N[C@@H](C)C(=O)N[C@@H](CCCCN)C(=O)O)[C@@H](C)O [p53 113-120]	int	5 to 15	–	–	–	–	+ (Major cleavage sites are defined as more than >1% of total digested peptide within the first hour)	− (The rest was designated as unstable peptide binding.)	+/− (Peptides that displayed IC50 at 20 °C of more than twice the IC50 at 4 °C but IC50 < 15 μM were considered to bind with intermediate stability.)	+ (Major cleavage sites are defined as more than >1% of total digested peptide within the first hour)	–	–	–
LGFLHSGTAK [p53 111-120]	high	–	high	high	–	–	+ (Major cleavage sites are defined as more than >1% of total digested peptide within the first hour)	+/− (Peptides that displayed IC50 at 20 °C of more than twice the IC50 at 4 °C but IC50 < 15 μM were considered to bind with intermediate stability.)	+/− (Peptides that displayed IC50 at 20 °C of more than twice the IC50 at 4 °C but IC50 < 15 μM were considered to bind with intermediate stability.)	+ (Major cleavage sites are defined as more than >1% of total digested peptide within the first hour)	+ (Stable peptides displayed IC50 at 20 °C that deviated <2 times of the IC50 at 4° C.)	–	–
CC(C)C[C@H](NC(=O)[C@H](Cc1ccccc1)NC(=O)CNC(=O)[C@H](CC(C)C)NC(=O)[C@@H](N)CCCNC(=N)N)C(=O)N[C@@H](Cc1c[nH]cn1)C(=O)N[C@@H](CO)C(=O)NCC(=O)N[C@H](C(=O)N[C@@H](C)C(=O)N[C@@H](CCCCN)C(=O)O)[C@@H](C)O [p53 110-120]	–	–	–	high	–	–	+ (Major cleavage sites are defined as more than >1% of total digested peptide within the first hour)	–	+ (Stable peptides displayed IC50 at 20 °C that deviated <2 times of the IC50 at 4° C.)	+ (Major cleavage sites are defined as more than >1% of total digested peptide within the first hour)	–	–	–
RTEEENLRK [p53 283-291]	–	–	–	–	int	5 to 15	–	–	–	–	+/− (Peptides that displayed IC50 at 20 °C of more than twice the IC50 at 4 °C but IC50 < 15 μM were considered to bind with intermediate stability.)	+/− (Peptides that displayed IC50 at 20 °C of more than twice the IC50 at 4 °C but IC50 < 15 μM were considered to bind with intermediate stability.)	–
GQSTSRHKK [p53 374-382]	–	–	–	–	int	–	–	–	–	–	+/− (Peptides that displayed IC50 at 20 °C of more than twice the IC50 at 4 °C but IC50 < 15 μM were considered to bind with intermediate stability.)	+/− (Peptides that displayed IC50 at 20 °C of more than twice the IC50 at 4 °C but IC50 < 15 μM were considered to bind with intermediate stability.)	5 to 15

The next lines start with results.

HLA binding Affinity (Table 5) (HLA-A*0301 [4])	IC50 (HLA-A*0301 [4]; HLA-A*0301, IC50 category, read-out: Peptide Binding Affinity) [µM]	Peptide Binding Affinity (HLA-A*1101 [5]; HLA-A*1101, IC50 category)	Peptide Binding Affinity (HLA-A*0301 [4]; HLA-A*0301, IC50 category)	HLA binding Affinity (Table 5) (HLA-A*1101 [5])	IC50 (HLA-A*1101 [5]; [7]) [µM]	Compound	Proteasomal Cleavage of C-terminus, IP (RMA) [1]	HLA binding Stability (Table 5) (HLA-A*0301 [2])	Peptide Binding Stability (HLA-A*0301 [2])	Proteasomal Cleavage of C-terminus, IP (JY) [3]	Peptide Binding Stability (HLA-A*1101 [6])	HLA binding Stability (Table 5) (HLA-A*1101 [6])	IC50 (HLA-A*1101 [5]) [µM]
–	–	high	–	high	–	C[C@@H](O)[C@H](NC(=O)[C@@H](N)CC(N)=O)C(=O)N[C@@H](CO)C(=O)N[C@@H](CO)C(=O)N[C@@H](CO)C(=O)N1CCC[C@H]1C(=O)N[C@@H](CCC(N)=O)C(=O)N1CCC[C@H]1C(=O)N[C@@H](CCCCN)C(=O)N[C@@H](CCCCN)C(=O)O [p53 311-320]	–	–	–	–	+/− (Peptides that displayed IC50 at 20 °C of more than twice the IC50 at 4 °C but IC50 < 15 μM were considered to bind with intermediate stability.)	+/− (Peptides that displayed IC50 at 20 °C of more than twice the IC50 at 4 °C but IC50 < 15 μM were considered to bind with intermediate stability.)	–
–	–	high	–	high	–	C[C@@H](O)[C@H](NC(=O)[C@@H](N)CC(N)=O)C(=O)N[C@@H](CO)C(=O)N[C@@H](CO)C(=O)N[C@@H](CO)C(=O)N1CCC[C@H]1C(=O)N[C@@H](CCC(N)=O)C(=O)N1CCC[C@H]1C(=O)N[C@@H](CCCCN)C(=O)O [p53 311-319]	–	–	–	–	+/− (Peptides that displayed IC50 at 20 °C of more than twice the IC50 at 4 °C but IC50 < 15 μM were considered to bind with intermediate stability.)	+/− (Peptides that displayed IC50 at 20 °C of more than twice the IC50 at 4 °C but IC50 < 15 μM were considered to bind with intermediate stability.)	–
–	–	high	–	high	–	C[C@@H](O)[C@H](N)C(=O)N[C@@H](CO)C(=O)N[C@@H](CO)C(=O)N[C@@H](CO)C(=O)N1CCC[C@H]1C(=O)N[C@@H](CCC(N)=O)C(=O)N1CCC[C@H]1C(=O)N[C@@H](CCCCN)C(=O)O [p53 312-319]	–	–	–	–	+/− (Peptides that displayed IC50 at 20 °C of more than twice the IC50 at 4 °C but IC50 < 15 μM were considered to bind with intermediate stability.)	+/− (Peptides that displayed IC50 at 20 °C of more than twice the IC50 at 4 °C but IC50 < 15 μM were considered to bind with intermediate stability.)	–
high	–	–	high	int	5 to 15	CC(C)C[C@H](NC(=O)[C@H](Cc1c[nH]cn1)NC(=O)[C@H](CO)NC(=O)[C@H](CO)NC(=O)[C@H](Cc1c[nH]cn1)NC(=O)[C@H](C)NC(=O)[C@@H](N)CCCNC(=N)N)C(=O)N[C@@H](CCCCN)C(=O)O [p53 363-370]	–	+ (Stable peptides displayed IC50 at 20 °C that deviated <2 times of the IC50 at 4° C.)	+ (Stable peptides displayed IC50 at 20 °C that deviated <2 times of the IC50 at 4° C.)	–	+/− (Peptides that displayed IC50 at 20 °C of more than twice the IC50 at 4 °C but IC50 < 15 μM were considered to bind with intermediate stability.)	+/− (Peptides that displayed IC50 at 20 °C of more than twice the IC50 at 4 °C but IC50 < 15 μM were considered to bind with intermediate stability.)	–
